One assay deals with T1, 12-LOX (Homo sapiens, UniProt P18054).
T1 sequence (P18054 1-663): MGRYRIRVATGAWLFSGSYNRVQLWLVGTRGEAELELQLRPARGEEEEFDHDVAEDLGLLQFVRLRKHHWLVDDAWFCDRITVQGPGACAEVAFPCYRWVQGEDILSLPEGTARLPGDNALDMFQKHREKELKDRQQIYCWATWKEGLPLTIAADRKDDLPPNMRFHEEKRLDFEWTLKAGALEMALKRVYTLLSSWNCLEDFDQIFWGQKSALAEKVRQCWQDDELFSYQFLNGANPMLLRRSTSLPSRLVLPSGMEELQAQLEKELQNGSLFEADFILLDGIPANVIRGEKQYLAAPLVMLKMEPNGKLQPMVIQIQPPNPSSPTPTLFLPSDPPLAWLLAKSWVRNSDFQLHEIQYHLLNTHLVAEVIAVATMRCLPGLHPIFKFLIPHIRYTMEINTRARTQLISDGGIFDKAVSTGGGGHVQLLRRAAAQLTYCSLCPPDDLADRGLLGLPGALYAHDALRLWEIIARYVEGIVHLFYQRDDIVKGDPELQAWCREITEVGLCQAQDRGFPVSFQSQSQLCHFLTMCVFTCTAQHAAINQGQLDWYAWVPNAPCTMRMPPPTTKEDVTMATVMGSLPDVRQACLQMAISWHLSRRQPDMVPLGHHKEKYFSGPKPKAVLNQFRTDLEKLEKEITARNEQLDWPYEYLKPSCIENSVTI
In words: 12-LOX fluorescent assay (in vitro lipoxygenase inhibition). The assay is classed as biochemical. On the procedure: 12-LOX/15-LOX Fluorescent Assay
The enzyme assay (100 ul) contained 50 mM Tris, pH 7.5, 0.05% Tween-20, 20 μM AA/LA, 1 μM DHR123, and 100 nM recombinant 12-LOX enzyme/50 nM recombinant 15-LOX enzyme. Inhibitors (dissolved in DMSO) were plated at 1 μL into 96-well assay microplates followed by a 40 μL addition of a solution containing 12-LOX/15-LOX enzyme. Enzyme was pre-incubated with compounds for 15 mins. The assay was initiated by the addition of a 40 μL substrate solution containing AA/LA, and 20μL addition of a solution containing DHR123. […] Percent inhibition was calculated for each compound dose for IC50 curve fitting using 4 Parameter Logistic Model or Sigmoidal Dose-Response Model.

For the next assay, the target named is T2, 5-LOX (Homo sapiens, UniProt P09917).
T2 sequence (P09917 1-674): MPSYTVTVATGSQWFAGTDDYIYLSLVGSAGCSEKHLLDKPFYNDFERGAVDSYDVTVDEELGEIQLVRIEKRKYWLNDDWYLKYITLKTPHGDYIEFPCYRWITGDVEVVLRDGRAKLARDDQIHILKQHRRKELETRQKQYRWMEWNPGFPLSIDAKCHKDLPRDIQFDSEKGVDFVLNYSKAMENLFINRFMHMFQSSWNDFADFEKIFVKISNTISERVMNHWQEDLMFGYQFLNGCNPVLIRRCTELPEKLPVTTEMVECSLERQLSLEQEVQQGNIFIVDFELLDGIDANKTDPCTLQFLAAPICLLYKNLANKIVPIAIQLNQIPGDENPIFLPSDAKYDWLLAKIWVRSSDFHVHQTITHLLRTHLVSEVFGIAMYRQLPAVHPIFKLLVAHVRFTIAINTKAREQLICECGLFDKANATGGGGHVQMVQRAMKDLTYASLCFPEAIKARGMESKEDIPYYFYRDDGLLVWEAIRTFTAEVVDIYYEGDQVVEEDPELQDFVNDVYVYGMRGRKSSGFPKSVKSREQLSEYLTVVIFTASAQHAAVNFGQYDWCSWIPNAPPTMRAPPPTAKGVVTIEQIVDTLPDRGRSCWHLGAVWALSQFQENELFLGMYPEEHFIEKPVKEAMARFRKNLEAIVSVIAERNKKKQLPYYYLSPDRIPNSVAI
In words: 5-LOX fluorescent assay (in vitro lipoxygenase inhibition). The format is biochemical. On the procedure: 5-LOX FI assay Fluorescent Assay
The enzyme assay (100 μL) contained 50 mM Tris, pH 7.5, 0.1 mM EDTA, 0.3 mM CaCl2, 20 μM AA, 100 μM ATP, 1 μM DHR123, and recombinant 5-LOX cell lysate (0.5 μL/100 μL). Inhibitors (dissolved in DMSO) were plated at 1 μL into 96-well assay microplates followed by a 40 μL addition of a solution containing 5-LOX enzyme. Enzyme was pre-incubated with compounds for 15 mins. The assay was initiated by the addition of a 40 μL substrate solution containing AA and ATP, and 20 μL addition of a solution containing DHR123. […] Percent inhibition was calculated for each compound dose for IC50 curve fitting using 4 Parameter Logistic Model or Sigmoidal Dose-Response Model.

Setting [1] is: 100 nM recombinant 12-LOX, 20 μM AA, DHR123 fluorescence, several values in a cell = repeat determinations, read-out: IC50 (μM) values for in vitro lipoxygenase inhibition, 12-LOX.
Setting [2] is: recombinant 5-LOX cell lysate, 20 μM AA, DHR123 fluorescence, several values in a cell = repeat determinations, read-out: IC50 (μM) values for in vitro lipoxygenase inhibition, 5-LOX.

SMILES strings stand for the structures. Values joined by “and” are separate entries in the source; they are usually repeats but may differ in a detail not shown here. Equal values may be shown once. Read-outs that look alike come from different tables or passages of the source.

One may read the IC50 as the concentration that gives 50% inhibition. As to `OCCc1ccccc1-c1ccc(Nc2ccccc2)cc1NCCn1cncn1` [SS20308-0149-01, 2-(2′-(2-(1H-1,2,4-triazol-1-yl)ethylamino)-4′-(phenylamino)biphenyl-2-yl)ethanol], the figures for the IC50 on 12-LOX (setting [1]) and on 5-LOX (setting [2]) were 0.3 µM and 0.63 µM, respectively.

`c1ccc(Nc2ccc(NCCCn3cncn3)c(-c3ccccc3)c2)cc1` [SS20308-0151-01, N^2-(3-(1H-1,2,4-triazol-1-yl)propyl)-N^5-phenylbiphenyl-2,5-diamine]: the half-inhibitory concentration (IC50) was 0.02 µM at 12-LOX; 0.07 µM and 0.04 µM at 5-LOX (setting [2]).

On to `c1ccc(Nc2cccc(-c3ccccc3)c2NCCn2cncn2)cc1` [SS20308-0153-01, N^2-(2-(1H-1,2,4-triazol-1-yl)ethyl)-N^3-phenylbiphenyl-2,3-diamine], for which the IC50 on 12-LOX (setting [1]) amounted to 0.2 µM; on 5-LOX (setting [2]), 0.71 µM.

Regarding `Fc1ccc(Nc2ccc(NCCn3cncn3)c(-c3ccccc3)c2)c(Cl)c1` [SS20308-0165-01, N^2-(2-(1H-1,2,4-triazol-1-yl)ethyl)-N^5-(2-chloro-4-fluorophenyl)biphenyl-2,5-diamine], the half-inhibitory concentration (IC50) is 0.08 µM and 0.06 µM on 12-LOX; 0.03 µM and 0.23 µM on 5-LOX (setting [2]).

For `c1ccc(Nc2ccc(-c3cccc4c3NCC4)c(NCCn3cncn3)c2)cc1` [SS20308-0166-01, N^3-(2-(1H-1,2,4-triazol-1-yl)ethyl)-4-(indolin-7-yl)-N^1-phenylbenzene-1,3-diamine], the 50% inhibitory concentration (IC50) was 0.07 µM at 12-LOX (setting [1]) and 0.14 µM on 5-LOX (setting [2]).

Consider `CN(C)CCCc1c(Nc2ccccc2)cccc1-c1cccc2c1NCC2` [SS20308-0172-01, 2-(3-(dimethylamino)propyl)-3-(indolin-7-yl)-N-phenylaniline], for which the concentration for half-maximal inhibition (IC50) at 12-LOX (setting [1]) is 0.36 µM; at 5-LOX (setting [2]) it was 0.23 µM.

Turning to `c1ccc(Nc2cnc(-c3ccccc3)c(NCCn3cncn3)c2)cc1` [SS20308-0173-01, N^3-(2-(1H-1,2,4-triazol-1-yl)ethyl)-N^5,2-diphenylpyridine-3,5-diamine], the IC50 was determined as 1.09 µM on 12-LOX (setting [1]) and 2.22 µM on 5-LOX (setting [2]).

For the compound `c1ccc(Nc2ccc(-c3ccccc3)c(NCCn3cncn3)n2)cc1` [SS20308-0175-01, N^2-(2-(1H-1,2,4-triazol-1-yl)ethyl)-N^6,3-diphenylpyridine-2,6-diamine], the IC50 on 12-LOX (setting [1]) was 0.26 µM; at 5-LOX (setting [2]), 0.32 µM.

Take `Cn1cncc1-c1ccc(Nc2ccccc2)cc1NCCn1cncn1` [SS20308-0177-01, N^3-(2-(1H-1,2,4-triazol-1-yl)ethyl)-4-(1-methyl-1H-imidazol-5-yl)-N^1-phenylbenzene-1,3-diamine]: the half-maximal inhibitory concentration (IC50) on 12-LOX (setting [1]) stood at 0.72 µM; at 5-LOX (setting [2]), 1.45 µM.

For `c1ccc(Nc2ccc(-c3ccccc3)c(NCCCn3cncn3)c2)cc1` [SS20308-0178-01, N^2-(3-(1H-1,2,4-triazol-1-yl)propyl)-N^4-phenylbiphenyl-2,4-diamine], the IC50 was 0.09 µM and 0.11 µM and 0.07 µM and 0.14 µM at 12-LOX; 150 nM and 210 nM (2×) and 90 nM at 5-LOX.

Turning to `Fc1ccc(Nc2ccc(-c3ccc(Cl)cc3)c(NCCn3cncn3)c2)cc1` [SS20308-0181-01, N^2-(2-(1H-1,2,4-triazol-1-yl)ethyl)-4′-chloro-N^4-(4-fluorophenyl)biphenyl-2,4-diamine], the concentration for half-maximal inhibition (IC50) at 12-LOX (setting [1]) and on 5-LOX (setting [2]) was 0.16 µM throughout.

In the case of `CN(C)CC1(CNc2cc(Nc3ccc(F)cc3)ccc2-c2ccccc2)COC1` [SS20308-0184-01, N^2-((3-((dimethylamino)methyl)oxetan-3-yl)methyl)-N^4-(4-fluorophenyl)biphenyl-2,4-diamine], the IC50 at 12-LOX (setting [1]) came to 0.18 µM; on 5-LOX (setting [2]), 0.16 µM.

As for `c1ccc(Nc2ccc(-c3ccn[nH]3)c(NCCn3cncn3)c2)cc1` [SS20308-0189-01, N^3-(2-(1H-1,2,4-triazol-1-yl)ethyl)-N^1-phenyl-4-(1H-pyrazol-5-yl)benzene-1,3-diamine], the IC50 on 12-LOX (setting [1]) was 0.08 µM and 0.15 µM; at 5-LOX (setting [2]), 0.17 µM and 0.28 µM.

Regarding `Cn1nccc1-c1ccc(Nc2ccccc2)cc1NCCn1cncn1` [SS20308-0190-01, N^3-(2-(1H-1,2,4-triazol-1-yl)ethyl)-4-(1-methyl-1H-pyrazol-5-yl)-N^1-phenylbenzene-1,3-diamine], the IC50 was 0.93 µM at 12-LOX (setting [1]) and 1.35 µM on 5-LOX (setting [2]).

`Cn1cc(-c2ccc(Nc3ccccc3)cc2NCCn2cncn2)cn1` [SS20308-0191-01, N^3-(2-(1H-1,2,4-triazol-1-yl)ethyl)-4-(1-methyl-1H-pyrazol-4-yl)-N^1-phenylbenzene-1,3-diamine]: the figures for the IC50 at 12-LOX and at 5-LOX (setting [2]) were 1.96 µM and 4.18 µM, respectively.

With `Cc1noc(C)c1-c1ccc(Nc2ccccc2)cc1NCCn1cncn1` [SS20308-0192-01, N^3-(2-(1H-1,2,4-triazol-1-yl)ethyl)-4-(3,5-dimethylisoxazol-4-yl)-N^1-phenylbenzene-1,3-diamine], the 50% inhibitory concentration (IC50) on 12-LOX (setting [1]) came out at 0.59 µM; at 5-LOX (setting [2]) it was 0.83 µM.

Consider `c1ccc(Nc2ccc(-c3cccs3)c(NCCn3cncn3)c2)cc1` [SS20308-0193-01, N^3-(2-(1H-1,2,4-triazol-1-yl)ethyl)-N^1-phenyl-4-(thiophen-2-yl)benzene-1,3-diamine], for which the values for the IC50 on 12-LOX (setting [1]) and at 5-LOX (setting [2]) were 0.14 µM and 0.28 µM, respectively.

`N#Cc1ccc(-c2ccc(Nc3ccccc3)cc2NCCn2cncn2)s1` [SS20308-0194-01, 5-(2-(2-(1H-1,2,4-triazol-1-yl)ethylamino)-4-(phenylamino)phenyl)thiophene-2-carbonitrile]: the IC50 at 12-LOX (setting [1]) worked out at 0.13 µM; at 5-LOX (setting [2]) it was 0.19 µM.

Consider `c1ccc(Nc2ccc(C3CCCO3)c(NCCn3cncn3)c2)cc1` (stereo not shown) [SS20308-0195-01, N^3-(2-(1H-1,2,4-triazol-1-yl)ethyl)-N^1-phenyl-4-(tetrahydrofuran-2-yl)benzene-1,3-diamine], for which the half-inhibitory concentration (IC50) on 12-LOX (setting [1]) is 0.36 µM; at 5-LOX (setting [2]), 0.76 µM.

Turning to `CN(C)CCCc1ccc(Nc2ccccc2Cl)c(Nc2ccccc2Cl)c1` [SS20308-0198-01, N^1,N^2-bis(2-chlorophenyl)-4-(3-(dimethylamino)propyl)benzene-1,2-diamine], the IC50 amounted to 0.32 µM at 12-LOX (setting [1]) and 0.25 µM on 5-LOX (setting [2]).

Turning to `CN(C)CCCc1cc(Nc2ccc(F)cc2Cl)c(F)cc1Nc1ccc(F)cc1Cl` [SS20308-0199-01, N^1,N^4-bis(2-chloro-4-fluorophenyl)-2-(3-(dimethylamino)propyl)-5-fluorobenzene-1,4-diamine], the results for the concentration for half-maximal inhibition (IC50) on 12-LOX (setting [1]) and at 5-LOX (setting [2]) were 0.51 µM and 0.68 µM, respectively.

For the compound `c1ccc(-c2ccc(NC3CCCCC3)cc2NCCn2cncn2)cc1` [SS20308-0200-01, N^2-(2-(1H-1,2,4-triazol-1-yl)ethyl)-N^4-cyclohexylbiphenyl-2,4-diamine], the IC50 on 12-LOX (setting [1]) was 0.17 µM; at 5-LOX (setting [2]) it was 0.4 µM.

On to `Fc1ccc(Nc2ccc3c(c2)N(CCn2cncn2)CC3)cc1` [SS20308-0201-01, 1-(2-(1H-1,2,4-triazol-1-yl)ethyl)-N-(4-fluorophenyl)indolin-6-amine], for which the results for the half-inhibitory concentration (IC50) at 12-LOX (setting [1]) and on 5-LOX (setting [2]) were 0.05 µM and 0.19 µM, respectively.

The values above are taken from patent publication US20230117592A1 (SRI International, priority 2019, published 2023).
